The structures appear in SMILES notation.

The test system of one series is defective wound. Nature of the series: Circular defective wound in rats (weight of regenerated granulation). In kind it is in vivo, Wistar male rats. The note with it: relative to control (10% ethanol aqueous solution) = 100; Concn. 0.1 % in 10% ethanol aqueous solution, applied to wound twice a day, 1 ml per application, 5 days; granulation weight 6 days after wounding; 6 rats per group. As for the experimental part:
Groups of Wistar male rats (SPF; each group comprising 6 animals) were anesthetized and hair was removed from the back of each rat. Then a circular defective wound having a diameter of 12 mm was formed on the skin of the back from which hair had been removed.
After forming the defective wound, an effective component was dissolved in 10% ethanol aqueous solution and applied to the wounded portion twice a day in a dose of 1 mℓ per application for 5 days successively. 6 Days after the formation of the wound, the animals were sacrificed to cut off the formed granulation from the defective portion and the weight of the granulation was determined. The relative value of the average of the measured weight with respect to that of the control was defined as an indication of the rate of healing of the defective wound. The results obtained are listed in Table IV given below (the results are expressed in the value relative to that of the control which is defined as 100).

Another series relates to incised wound. Description: Incised wound healing in rats (tension needed to peel skin at the wound, tensile strength tester). The format is in vivo, Wistar male rats. The note with it: relative to control (physiological saline) = 100; Concn. 0.5 % in saline, subcutaneously once a day for 7 days, 0.67 ml/kg/day; tension measured 8 days after operation; 8 rats per group. The source says: Groups of Wistar male rats (SPF; each group comprising 8 animals) were anesthetized with Nembutal® pentobarbital sodium) injection and hair was removed from the back of each rat over a wide area. After disinfecting the area with alcohol, a sharp incised wound having a length of 4 cm was mesially formed with a scalpel and it was stitched up, with Mitchell needles, at three positions at regular intervals (the Mitchell needles were removed 4 days after the operation).
After forming incised wound, an effective component was dissolved in a saline solution and administered subcutaneously once a day for 7 days successively (dose: 0.67 m ℓ/kg/day). The animals were sacrificed 8 days after the operation, the skin of the wounded part was peeled off to remove subcutis followed by preparing three pieces of the skin perpendicular to the line of the incised wound, having a width of 1 cm, per rat and determining tention (g/cm) required for peeling off each piece of the skin at the incised wound portion utilizing a tensile strength tester. The relative value of the average of the measured tension with respect to that of the control was defined as an indication of the rate of healing of the wound. The results obtained are listed in Table III given below (the results are expressed in the value relative to that of the control which is defined as 100).

Series [1] in a line: Stability of the compound in the used composition after the use test, HPLC. The format is physicochemical. The note with it: on the average, 131400 min.

Consider `CC(C)(COP(=O)(O)OP(=O)(O)OC[C@H]1O[C@@H](n2cnc3c(N)ncnc32)[C@H](O)[C@@H]1OP(=O)(O)O)[C@@H](O)C(=O)NCCC(=O)NCCS` [Coenzyme A ·3Na, reference compound], for which the “Rate of Regenerated Granulation” value in the series with defective wound is 119. Moreover, the “Rate of Relative Healing” value in the series with incised wound worked out at 117.

Consider `CC(C)(COP(=O)(O)OP(=O)(O)OC[C@H]1O[C@@H](n2cnc3c(N)ncnc32)[C@H](O)[C@@H]1OP(=O)(O)O)[C@@H](O)C(=O)NCCC(=O)NCCSSCCNC(=O)CCNC(=O)[C@H](O)C(C)(C)COP(=O)(O)OP(=O)(O)OC[C@H]1O[C@@H](n2cnc3c(N)ncnc32)[C@H](O)[C@@H]1OP(=O)(O)O` [Compound I-A ·2Ca], for which the “rate of Compound I-A ·2Ca remaining in the milky lotion” value in series [1] (in the used milky lotion (0.05 %) after completion of the 3-month test) turned out to be 98.8%. As to `CC(C)(COP(=O)(O)OP(=O)(O)OC[C@H]1O[C@@H](n2cnc3c(N)ncnc32)[C@H](O)[C@@H]1OP(=O)(O)O)[C@@H](O)C(=O)NCCC(=O)NCCSSCCNC(=O)CCNC(=O)[C@H](O)C(C)(C)COP(=O)(O)OP(=O)(O)OC[C@H]1O[C@@H](n2cnc3c(N)ncnc32)[C@H](O)[C@@H]1OP(=O)(O)O` [Compound I-A ·6Na], the “rate of Compound I-A ·6Na remaining in the beauty essence” value in series [1] (in the used beauty essence (0.1 %) after completion of the 3-month test) is 98.5%. Also, the “Rate of Regenerated Granulation” value in the series with defective wound is 148. The “Rate of Relative Healing” value in the series with incised wound amounted to 126.

On to `CC(C)(COP(=O)(O)OP(=O)(O)OC[C@H]1O[C@@H](n2cnc3c(N)ncnc32)[C@H](O)[C@@H]1OP(=O)(O)O)[C@@H](O)C(=O)NCCC(=O)NCCSSCCNC(=O)CCNC(=O)[C@H](O)C(C)(C)COP(=O)(O)OP(=O)(O)OC[C@H]1O[C@@H](n2cnc3c(N)ncnc32)[C@H](O)[C@@H]1OP(=O)(O)O` [Compound I-A], for which, in series [1] (in the used toilet water (0.1 %) after completion of the 3-month test), the “rate of the remaining Compound I-A” value is 97.8%.
